Measured values taken from patent publication US6727264B1 (Synaptic Pharmaceutical Corporation, priority 2001, dated 2004).

Key:
Male Sprague Dawley rats = experiment: Continuous Slow Transvesicular Infusion (CSTI) rat model; assay type: in vivo; set-up: key: F: Produced an increase in bladder capacity in rats relative to baseline capacity; details: intragastric administration, vs baseline capacity
Protocol: The effects of compounds on the micturition reflex were assessed in the “distension-induced rhythmic contraction” (DIRC), as described in previous publications (e.g. Maggi et al, 1987; Morikawa et al, 1992), and Continuous Slow Transvesicular Infusion (CSTI) models in rats. Male Sprague Dawley rats weighing approximately 300 g were used for the study. Rats were anaesthetized with pentobarbitone sodium (50 mg/kg, i.p). Through a median abdominal incision, bladder was exposed and a polyethylene cannula (PE 50) was introduced into the bladder through a small cut on the dome of the bladder and the cannula was secured with a purse string suture. The other end of the cannula was exteriorized subcutaneously at the dorsal neck area. Similarly, another cannula (PE 50) was introduced into the stomach through a paramedian abdominal incision with the free end exteriorized subcutaneously to the neck region. The surgical wounds were closed with silk 4-0 suture and the animal was allowed to recover with appropriate post surgical care. On the following day, the animal was placed in a rat restrainer. The open end of the bladder-cannula was connected to a pressure transducer as well as infusion pump through a three-way stopcock. The bladder voiding cycles were initiated by continuous infusion of normal saline at the rate of 100 μl/min. The repetitive voiding contractions were recorded on a Power Lab on-line data acquisition software. After recording the basal voiding pattern for an hour, the test drug or vehicle was administered directly into stomach through the intragastric catheter and the voiding cycles were monitored for 5 hours. Micturition pressure and frequency were calculated before and after the treatment (at every 30 min interval) for each animal. Bladder capacity was calculated from the micturition frequency, based on the constant infusion of 100 ul/min. The effect of the test drug was expressed as a percentage of basal, pre-drug bladder capacity. WAY 100635 was used as positive control for comparison.

[1] = test system: Female Sprague Dawley rats; experiment: Distension-induced rhythmic contraction (DIRC) model of the micturition reflex; assay type: in vivo, rat; set-up: key: E: Produced a significant increase in contraction interval relative to pre-drug interval; details: urethane-anesthetized female rats, i.v. or i.p.; vs pre-drug interval
Protocol: The effects of compounds on the micturition reflex were assessed in the “distension-induced rhythmic contraction” (DIRC), as described in previous publications (e.g. Maggi et al, 1987; Morikawa et al, 1992), and Continuous Slow Transvesicular Infusion (CSTI) models in rats. Female Sprague Dawley rats weighing approximately 300 g were anesthetized with subcutaneous urethane (1.2 g/kg). The trachea was cannulated with PE240 tubing to provide a clear airway throughout the experiment. A midline abdominal incision was made and the left and right ureters were isolated. The ureters were ligated distally (to prevent escape of fluids from the bladder) and cannulated proximally with PE10 tubing. The incision was closed using 4-0 silk sutures, leaving the PE10 lines routed to the exterior for the elimination of urine. The bladder was canulated via the transurethral route using PE50 tubing inserted 2.5 cm beyond the urethral opening. This cannula was secured to the tail using tape and connected to a pressure transducer. To prevent leakage from the bladder, the cannula was tied tightly to the exterior urethral opening using 4-0 silk. To initiate the micturition reflex, the bladder was first emptied by applying pressure to the lower abdomen, and then filled with normal saline in […] (maximum=2 ml) until spontaneous bladder contractions occurred (typically 20-40 mmHg at a rate of one contraction every 2 to 3 minutes. Once a regular rhythm was established, vehicle (saline) or Test Compounds were administered i.v. or i.p. to explore their effects on bladder activity. The 5-HT1A antagonist WAY-100635 was given as a positive control. Data were expressed as contraction interval (in seconds) before drug application (basal), or after the application of vehicle or test article.

G4F-7 cells = details: cited from earlier work
[2] = test system: food intake induced by the intracerebroventricular application of MCH; details: in vivo; cited from earlier work
human MCH-1 = human MCH-1 (Homo sapiens, UniProt Q99705); details: cited from earlier work
Sequence of human MCH-1 (Q99705 whole entry): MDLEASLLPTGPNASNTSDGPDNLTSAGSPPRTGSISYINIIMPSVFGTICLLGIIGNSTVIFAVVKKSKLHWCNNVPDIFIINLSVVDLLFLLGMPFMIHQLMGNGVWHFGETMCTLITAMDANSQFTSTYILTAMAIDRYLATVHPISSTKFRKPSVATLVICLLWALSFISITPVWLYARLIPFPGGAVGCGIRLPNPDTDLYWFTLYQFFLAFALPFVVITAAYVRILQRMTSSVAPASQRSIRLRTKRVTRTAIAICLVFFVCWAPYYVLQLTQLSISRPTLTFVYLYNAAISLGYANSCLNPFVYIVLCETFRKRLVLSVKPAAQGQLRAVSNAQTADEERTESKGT

rat MCH-1 [3] = target: T1, rat MCH-1 (Rattus norvegicus, UniProt P97639); details: cited from earlier work
T1 sequence (P97639 whole entry): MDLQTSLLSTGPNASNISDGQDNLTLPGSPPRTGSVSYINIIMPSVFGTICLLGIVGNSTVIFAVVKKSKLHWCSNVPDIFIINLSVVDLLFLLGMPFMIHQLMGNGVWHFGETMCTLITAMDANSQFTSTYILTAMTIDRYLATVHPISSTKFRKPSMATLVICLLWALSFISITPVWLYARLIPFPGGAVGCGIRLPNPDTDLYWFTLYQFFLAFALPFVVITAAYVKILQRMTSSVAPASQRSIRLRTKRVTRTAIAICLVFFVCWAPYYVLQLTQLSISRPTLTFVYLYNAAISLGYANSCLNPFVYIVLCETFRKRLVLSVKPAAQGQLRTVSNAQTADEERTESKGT

[4] = target: T2, human Histamine H1 receptor (Homo sapiens, UniProt P35367); experiment: Binding affinity at cloned human Histamine H1 receptor; details: read-out: hH1 Ki
T2 construct: expressed in transfected cells
T2 sequence (P35367 whole entry): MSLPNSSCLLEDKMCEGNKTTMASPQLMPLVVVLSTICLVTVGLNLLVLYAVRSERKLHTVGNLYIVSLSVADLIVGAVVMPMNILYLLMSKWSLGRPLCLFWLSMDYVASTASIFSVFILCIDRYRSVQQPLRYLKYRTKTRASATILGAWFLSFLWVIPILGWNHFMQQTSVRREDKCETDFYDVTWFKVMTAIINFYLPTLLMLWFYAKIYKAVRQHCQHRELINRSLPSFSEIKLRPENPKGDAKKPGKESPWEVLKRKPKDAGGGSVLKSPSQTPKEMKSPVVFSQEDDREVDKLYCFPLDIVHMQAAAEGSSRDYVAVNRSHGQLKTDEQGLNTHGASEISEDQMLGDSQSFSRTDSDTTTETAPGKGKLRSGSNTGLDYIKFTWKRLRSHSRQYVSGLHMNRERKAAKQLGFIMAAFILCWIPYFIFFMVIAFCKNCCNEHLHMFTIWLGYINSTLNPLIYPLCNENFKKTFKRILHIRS

[5] = target: T3, human Alpha-1a Adrenergic receptor (Homo sapiens, UniProt P35348); experiment: Binding affinity at cloned human Alpha-1a Adrenergic receptor; details: read-out: hALPHA-1a Ki
T3 construct: expressed in transfected cells
T3 sequence (P35348 1-466): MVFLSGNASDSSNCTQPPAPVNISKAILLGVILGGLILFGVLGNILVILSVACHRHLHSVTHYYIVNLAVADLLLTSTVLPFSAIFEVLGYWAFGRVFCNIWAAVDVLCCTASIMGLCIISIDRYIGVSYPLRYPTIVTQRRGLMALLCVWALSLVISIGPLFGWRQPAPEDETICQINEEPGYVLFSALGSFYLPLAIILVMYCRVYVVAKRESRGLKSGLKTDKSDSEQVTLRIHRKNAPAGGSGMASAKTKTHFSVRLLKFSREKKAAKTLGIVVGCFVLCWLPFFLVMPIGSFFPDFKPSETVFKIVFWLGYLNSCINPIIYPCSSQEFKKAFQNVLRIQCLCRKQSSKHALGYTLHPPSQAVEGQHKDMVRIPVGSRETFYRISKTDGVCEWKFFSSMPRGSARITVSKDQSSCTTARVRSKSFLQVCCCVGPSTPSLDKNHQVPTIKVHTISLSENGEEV

[6] = target: human Dopamine D2 receptor (Homo sapiens, UniProt P14416); experiment: Binding affinity at cloned human Dopamine D2 receptor; details: read-out: hD2 Ki
Sequence of human Dopamine D2 receptor (P14416 whole entry): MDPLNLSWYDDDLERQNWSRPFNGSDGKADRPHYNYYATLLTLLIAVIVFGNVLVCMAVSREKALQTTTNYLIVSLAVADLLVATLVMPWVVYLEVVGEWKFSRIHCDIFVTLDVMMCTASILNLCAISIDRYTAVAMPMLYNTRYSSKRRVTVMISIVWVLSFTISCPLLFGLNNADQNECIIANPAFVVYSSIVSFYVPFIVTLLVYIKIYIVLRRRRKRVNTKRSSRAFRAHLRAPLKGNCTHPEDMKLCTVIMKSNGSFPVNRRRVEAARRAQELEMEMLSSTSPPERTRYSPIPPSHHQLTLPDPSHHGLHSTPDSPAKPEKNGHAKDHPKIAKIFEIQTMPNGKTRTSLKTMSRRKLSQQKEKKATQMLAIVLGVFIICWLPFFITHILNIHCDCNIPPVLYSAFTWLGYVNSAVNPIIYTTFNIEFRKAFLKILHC

rat MCH-1 [7] = target: T1, rat MCH-1; experiment: Radioligand binding assay at cloned rat MCH1 receptor ([3H] Compound A); set-up: host or cells: Peak rapid 293 (Peakr293) cells, transient calcium phosphate transfection, membranes; details: cloned rat MCH1 receptor, membranes from Peakr293 cells, 0.08 nM [3H] Compound A; read-out: Ki (nM) rMCH1

Cc1ccc(C(=O)CCCN2CCC(c3cccc(NC(=O)C(C)C)c3)CC2)cc1C [Example 2]
CSTI (bladder capacity) (Male Sprague Dawley rats): F | DIRC (contraction interval) [1]: E

CC(=O)c1cccc(O[C@H](CCN2CCC(c3cccc(NC(=O)C(C)C)c3)CC2)c2ccccc2)c1 [Example 116]
CSTI (bladder capacity) (Male Sprague Dawley rats): F | DIRC (contraction interval) [1]: E

[Phe^13, Tyr^19]-MCH
Kd (G4F-7 cells; radioiodinated ligand, G4F-7 cells): 0.118 nM

Cc1onc(-c2c(Cl)cccc2Cl)c1C(=O)NCCCCCN1CCC(c2cccc(NC(=O)C(C)C)c2)CC1 [Example 106]
CSTI (bladder capacity) (Male Sprague Dawley rats): F | DIRC (contraction interval) [1]: E

CN(C)CC1CCc2cc(NC(=O)c3ccc(-c4ccc(F)cc4)cc3)ccc2C1 (stereo not drawn) [Example T-226296, T-226296]
food intake induced by intracerebroventricular MCH [2]: inhibit food intake | affinity for the MCH-1 receptor (human MCH-1): 5 to 9 nM | affinity for the MCH-1 receptor (rat MCH-1 [3]): 5 to 9 nM

rat ANF
Ki (G4F-7 cells; mouse melanoma cells, read-out: Ki (inhibition of [Phe13,Tyr19]-MCH binding)): 116 nM

CC(C)C(=O)Nc1cccc(C2CCN(CCCC(=O)c3ccc(Cl)cc3)CC2)c1 [Example 10]
CSTI (bladder capacity) (Male Sprague Dawley rats): F | DIRC (contraction interval) [1]: E

CC(=O)Nc1cccc(C2CCN(CCCNC(=O)N3C(=O)O[C@H](C)[C@@H]3c3ccc(F)c(F)c3)CC2)c1 [Example 75]
Ki [4]: 2840 nM | Ki [5]: 2470 nM | Ki [6]: 19000 nM | Ki (rat MCH-1 [7]): 11.8 nM

COC(CCN1CCC(c2cccc(NC(=O)C(C)C)c2)CC1)c1ccccc1 (stereo not drawn) [Example 37]
Ki [6]: 34900 nM

COc1ccc2[nH]c(-c3ccccc3)c(CCCN3CCC(c4cccc(NC(=O)C(C)C)c4)CC3)c2c1 [Example 91]
CSTI (bladder capacity) (Male Sprague Dawley rats): F | DIRC (contraction interval) [1]: E

CC(C)C(=O)Nc1cccc(C2CCN(CCC(OC(=O)c3cccc4ccccc34)c3ccccc3)CC2)c1 (stereo in doubt) [Example 69, (1S)-3-{4-[3-(ISOBUTYRYLAMINO)PHENYL]-1-PIPERIDINYL}-1-PHENYLPROPYL 1-NAPHTHOATE]
Ki [4]: > 50000 nM | Ki [5]: 232 nM | Ki [6]: 46.6 nM | Ki (rat MCH-1 [7]): 32.5 nM

CCn1c2ccccc2c2cc(CN3CCC(c4cccc(NC(=O)C(C)C)c4)CC3)ccc21 [Example 99]
CSTI (bladder capacity) (Male Sprague Dawley rats): F | DIRC (contraction interval) [1]: E

CC(C)C(=O)Nc1cccc(C2CCN(CC[C@H](Oc3ccc(-c4ccccc4)cc3)c3ccccc3)CC2)c1 [Example 78]
Ki [4]: > 50000 nM
